Laboratory results: patent US10087188B2, “Benzamide imidazopyrazine Btk inhibitors” (MERCK SHARP & DOHME CORP., priority 2014, dated 2018)
pIC50: −log10 of the molar value. Read-outs that look alike come from different tables or passages of the source.

Tests used:
[1] = biological target: BTK enzyme (recombinant full-length BTK, hBTK) (Homo sapiens (Human), UniProt Q06187); assay: Btk enzyme activity assay, LANCE TR-FRET; assay type: biochemical; details: 50 pM hBTK, 2 μM biotin-A5-peptide, 25 μM ATP; 60 minute compound & enzyme incubation; read-out: BTK binding IC50
Sequence of BTK enzyme (recombinant full-length BTK, hBTK) (Q06187 whole entry): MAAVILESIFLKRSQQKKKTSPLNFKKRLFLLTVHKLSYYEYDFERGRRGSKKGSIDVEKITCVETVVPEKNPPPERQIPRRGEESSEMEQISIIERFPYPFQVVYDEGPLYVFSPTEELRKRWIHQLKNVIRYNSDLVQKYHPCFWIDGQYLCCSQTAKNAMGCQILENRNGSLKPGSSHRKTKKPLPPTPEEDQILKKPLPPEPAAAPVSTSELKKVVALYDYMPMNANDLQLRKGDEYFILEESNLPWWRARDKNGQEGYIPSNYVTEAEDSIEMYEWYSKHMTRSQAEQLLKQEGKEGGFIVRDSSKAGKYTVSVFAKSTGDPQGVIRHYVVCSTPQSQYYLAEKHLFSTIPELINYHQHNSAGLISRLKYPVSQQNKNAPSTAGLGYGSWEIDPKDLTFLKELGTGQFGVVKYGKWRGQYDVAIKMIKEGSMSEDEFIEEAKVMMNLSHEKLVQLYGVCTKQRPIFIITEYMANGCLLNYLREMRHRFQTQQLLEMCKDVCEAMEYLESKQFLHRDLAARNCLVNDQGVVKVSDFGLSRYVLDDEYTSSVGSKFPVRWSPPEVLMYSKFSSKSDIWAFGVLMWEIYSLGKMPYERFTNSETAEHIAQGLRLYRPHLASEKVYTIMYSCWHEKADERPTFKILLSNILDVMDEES
Experimental: Btk Enzyme Activity Assay Methods
BTK enzymatic activity was determined with the LANCE (Lanthanide Chelate Excite) TR-FRET (Time-resolved fluorescence resonance energy transfer) assay. […] After 60 minutes incubation with detection reagents, reaction plates were read on a PerkinElmer EnVision plate reader using standard TR-FRET protocol.

[2] = tested on: HeLa cells; assay: [3H] Adenosine uptake assay; assay type: cell-based; details: accumulation of tritiated adenosine into HeLa cells, compound concentration range 10 μM to 0.032 nM, read-out: ADU inhibition IC50 (adenosine uptake inhibition potency)
Procedure, shortened: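 HeLa cells in HBSS + 5% FBS preincubated 30 min at ambient temperature with compound (0.25% DMSO), then [3H]adenosine (500 nM stock) added for 60 min. Uptake measured by scintillation proximity counting; IC50 from 4-parameter fit of counts vs log concentration.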

Compound | pIC50 [1] | pIC50 ([2]; Homo sapiens, HeLa) | pIC50 [2]
COc1cc(C(=O)Nc2cc(C(F)(F)F)ccn2)ccc1-c1nc([C@H]2CN(C3CC(C(=O)O)C3)[C@@H](C)CO2)n2ccnc(N)c12 (stereo partly drawn) [Example 185, 3-{(2R,5S)-2-[8-amino-1-(2-methoxy-4-{[4-(trifluoromethyl)pyridin-2-yl]carbamoyl}phenyl)imidazo [1,5-a]pyrazin-3-yl]-5-methylmorpholin-4-yl}cyclobutanecarboxylic acid] | 8.49 | 5.23 | –
Nc1nccn2c(C34CCC(C(=O)O)(CC3)C4)nc(-c3ccc(C(=O)Nc4cc(C(F)(F)F)ccn4)cc3)c12 [Example 65, 4-[8-amino-1-(4-{[4-(trifluoromethyl)pyridin-2-yl]carbamoyl}phenyl)imidazo[1,5-a]pyrazin-3-yl]bicyclo[2.2.1] heptane-1-carboxylic acid] | 9.22 | 5.22 | –
CCOc1cc(C(=O)Nc2cc(C(F)(F)F)ccn2)ccc1-c1nc([C@H]2CC[C@@H](C(C)C)[C@@H](C(=O)O)C2)n2ccnc(N)c12 [Example 101, (1S,2S,5S)-5-[8-amino-1-(2-ethoxy-4-{[4-(trifluoromethyl)pyridin-2-yl]carbamoyl}phenyl)imidazo[1,5-a]pyrazin-3-yl]-2-(1-methylethyl) cyclohexane-carboxylic acid] | 8.70 | 5.00 | –
C[C@]1(C(=O)O)CC[C@H](N2CCO[C@@H](c3nc(-c4ccc(C(=O)Nc5ccccn5)cc4)c4c(N)ncc(Cl)n34)C2)CC1 [Example 204, trans-4-[(2R)-2-{8-amino-5-chloro-1-[4-(pyridin-2-ylcarbamoyl)phenyl]imidazo [1,5-a]pyrazin-3-yl}morpholin-4-yl]-1-methylcyclohexanecarboxylic acid] | 8.42 | 5.41 | –
CC1(C(=O)O)CCC(c2nc(-c3ccc(C(=O)Nc4cc(C(F)(F)F)ccn4)cc3F)c3c(N)ncc(Cl)n23)CC1 (centres unmarked) [Example 163, 4-[8-amino-5-chloro-1-(2-fluoro-4-{[4-(trifluoromethyl)pyridin-2-yl]carbamoyl}phenyl)imidazo[1,5-a]pyrazin-3-yl]-1-methylcyclohexane-carboxylic acid] | 8.72 | 5.17 | –
Nc1nccn2c(C34CCC(C(=O)O)(CC3)CC4)nc(-c3ccc(C(=O)Nc4cc(C5CC5)ccn4)cc3)c12 [Example 169, 4-(8-amino-1-{4-[(4-cyclopropylpyridin-2-yl)carbamoyl]phenyl}imidazo[1,5-a]pyrazin-3-yl)bicyclo[2.2.2] octane-1-carboxylic acid] | 9.72 | 6.56 | –
COc1cc(C(=O)Nc2cc(C(F)(F)F)ccn2)cc(F)c1-c1nc(C23CCC(C(=O)O)(CC2)CC3)n2ccnc(N)c12 [Example 108, 4-[8-amino-1-(2-fluoro-6-methoxy-4-{[4-(trifluoromethyl)pyridin-2-yl]carbamoyl}phenyl)imidazo[1,5-a]pyrazin-3-yl]bicyclo[2.2.2] octane-1-carboxylic acid] | 9.14 | 5.17 | –
Nc1nccn2c(C34CCC(C(=O)O)(CC3)CC4)nc(-c3ccc(C(=O)Nc4cc(C(F)(F)F)ccn4)cc3F)c12 [Example 170, 4-[8-amino-1-(2-fluoro-4-{[4-(trifluoromethyl)pyridin-2-yl]carbamoyl}phenyl)imidazo[1,5-a]pyrazin-3-yl]bicyclo[2.2.2] octane-1-carboxylic acid] | 9.80 | 6.21 | –
COc1cc(C(=O)Nc2cc(C(F)(F)F)ccn2)ccc1-c1nc([C@H]2CN(C(C)(C)C(=O)O)CCO2)n2ccnc(N)c12 [Example 184, 2-{(2R)-2-[8-amino-1-(2-methoxy-4-{[4-(trifluoromethyl)pyridin-2-yl]carbamoyl}phenyl)imidazo [1,5-a]pyrazin-3-yl]morpholin-4-yl}-2-methylpropanoic acid] | 7.21 | 5.27 | –
CCOc1cc(C(=O)Nc2cc(C(F)(F)F)ccn2)ccc1-c1nc(C23CCCC(C(=O)O)(CC2)CC3)n2ccnc(N)c12 [Example 67, 5-[8-amino-1-(2-ethoxy-4-{[4-(trifluoromethyl)pyridin-2-yl]carbamoyl}phenyl)imidazo[1,5-a]pyrazin-3-yl]bicyclo[3.2.2] nonane-1-carboxylic acid] | 9.41 | 5.31 | –

Results, then the compound that gave them:

pIC50 [1] | pIC50 ([2]; Homo sapiens, HeLa) | pIC50 [2] | Compound
7.66 | 5.00 | – | CCOc1cc(C(=O)Nc2cc(C(F)(F)F)ccn2)ccc1-c1nc([C@@H]2CC[C@](C(=O)O)(C(C)C)C2)n2c(Cl)cnc(N)c12 [Example 112, (1R,3R)-3-[8-amino-5-chloro-1-(2-ethoxy-4-{[4-(trifluoromethyl)pyridin-2-yl]carbamoyl}phenyl)imidazo[1,5-a]pyrazin-3-yl]-1-(1-methylethyl) cyclopentane-carboxylic acid]
9.33 | 5.00 | – | CCOc1cc(C(=O)Nc2cc(C(F)(F)F)ccn2)cc(F)c1-c1nc([C@@]2(C)CC[C@](C)(C(=O)O)C2)n2ccnc(N)c12 [Example 126, (1S,3S)-3-[8-amino-1-(2-ethoxy-6-fluoro-4-{[4-(trifluoromethyl)pyridin-2-yl]carbamoyl}phenyl)imidazo[1,5-a]pyrazin-3-yl]-1,3-dimethylcyclopentane carboxylic acid]
7.88 | 6.18 | – | CC(C)(C(=O)O)N1CCO[C@@H](c2nc(-c3ccc(C(=O)Nc4cc(C(F)(F)F)ccn4)cc3)c3c(N)nccn23)C1 [Example 183, 2-{(2R)-2-[8-amino-1-(4-{[4-(trifluoromethyl)pyridin-2-yl]carbamoyl}phenyl)imidazo [1,5-a]pyrazin-3-yl]morpholin-4-yl}-2-methylpropanoic acid]
9.74 | 5.00 | – | Nc1nccn2c([C@@H]3CC[C@H](CC(=O)O)C3)nc(-c3ccc(C(=O)Nc4cc(C(F)(F)F)ccn4)cc3)c12 [Example 54, {(1S,3R)-3-[8-amino-1-(4-{[4-(trifluoromethyl)pyridin-2-yl]carbamoyl}phenyl)imidazo[1,5-a]pyrazin-3-yl]cyclopentyl}acetic acid]
8.59 | 5.33 | – | Nc1nccn2c(N3CC[C@@H](C(=O)O)C3)nc(-c3ccc(C(=O)Nc4cc(C(F)(F)F)ccn4)cc3)c12 [Example 36, (3R)-1-[8-amino-1-(4-{[4-(trifluoromethyl)pyridin-2-yl]carbamoyl}phenyl)imidazo[1,5-a]pyrazin-3-yl]pyrrolidine-3-carboxylic acid]
8.49 | 5.86 | – | CC(C)[C@@]1(C(=O)O)CC[C@H](c2nc(-c3ccc(C(=O)Nc4cc(C(F)(F)F)ccn4)cc3)c3c(N)ncc(Cl)n23)C1 [Example 107, (1R,3S)-3-[8-amino-5-chloro-1-(4-{[4-(trifluoromethyl)pyridin-2-yl]carbamoyl}phenyl)imidazo[1,5-a]pyrazin-3-yl]-1-(1-methylethyl) cyclopentane-carboxylic acid]
9.21 | 5.50 | – | CCOc1cc(C(=O)Nc2cc(C(F)(F)F)ccn2)ccc1-c1nc([C@H]2CC[C@@](C)(C(=O)O)C2(C)C)n2ccnc(N)c12 [Example 72, (1R,3S)-3-[8-amino-1-(2-ethoxy-4-{[4-(trifluoromethyl)pyridin-2-yl]carbamoyl}phenyl)imidazo[1,5-a]pyrazin-3-yl]-1,2,2-trimethylcyclopentane carboxylic acid]
8.66 | 5.23 | – | Nc1nccn2c([C@@H]3CCN[C@H](C(=O)O)C3)nc(-c3ccc(C(=O)Nc4cc(C(F)(F)F)ccn4)cc3)c12 [Example 32, (2S,4R)-4-[8-amino-1-(4-{[4-(trifluoromethyl)pyridin-2-yl]carbamoyl}phenyl)imidazo[1,5-a]pyrazin-3-yl]piperidine-2-carboxylic acid]
8.82 | 5.20 | – | C[C@H]1CO[C@@H](c2nc(-c3ccc(C(=O)Nc4cc(C5CC5)ccn4)cc3F)c3c(N)nccn23)CN1[C@H]1CC[C@](C)(C(=O)O)CC1 [Example 210, trans-4-[(2R,5S)-2-(8-amino-1-{4-[(4-cyclopropylpyridin-2-yl)carbamoyl]-2-fluorophenyl}imidazo[1,5-a]pyrazin-3-yl)-5-methylmorpholin-4-yl]-1-methylcyclohexanecarboxylic acid]
8.85 | 5.00 | – | C[C@]1(C(=O)O)CCN(c2nc(-c3ccc(C(=O)Nc4cc(C(F)(F)F)ccn4)cc3)c3c(N)nccn23)C1 [Example 45, (3S)-1-[8-amino-1-(4-{[4-(trifluoromethyl)pyridin-2-yl]carbamoyl}phenyl)imidazo[1,5-a]pyrazin-3-yl]-3-methylpyrrolidine-3-carboxylic acid]
8.92 | 5.53 | – | C[C@]1(C(=O)O)CC[C@H](N2CCO[C@@H](c3nc(-c4ccc(C(=O)Nc5cc(C6CC6)ccn5)cc4F)c4c(N)nccn34)C2)CC1 [Example 197, trans-4-[(2R)-2-(8-amino-1-{4-[(4-cyclopropylpyridin-2-yl)carbamoyl]-2-fluorophenyl}imidazo[1,5-a]pyrazin-3-yl)morpholin-4-yl]-1-methylcyclohexanecarboxylic acid]
8.06 | – | 5.52 | CCOc1cc(C(=O)Nc2cc(C(F)(F)F)ccn2)ccc1-c1nc([C@@H]2CC[C@@H](C(=O)O)O2)n2ccnc(N)c12 [Example 117, (2S,5S)-5-[8-amino-1-(2-ethoxy-4-{[4-(trifluoromethyl)pyridin-2-yl]carbamoyl}phenyl)imidazo[1,5-a]pyrazin-3-yl]tetrahydrofuran-2-carboxylic acid]
